Laboratory results from patent US20210244721A1, “SMALL MOLECULE ENTEROVIRUS INHIBITORS AND USES THEREOF” (priority 2020, published 2021).
Where two headings read alike, the source gives them in different places.

What was measured:
[1] = tested on: EV-D68 US/KY/14-18953 virus; experiment: CPE assay, EV-D68 US/KY/14-18953 in RD cells; assay type: cell-based, Enterovirus D68 (EV-D68); conditions: EV-D68 US/KY/14-18953, RD cells; for EC50: CPE assay
[2] = Cytotoxicity, neutral red method, RD cells; conditions: human, RD (rhabdomyosarcoma) cells
[3] = tested on: EV-A71 Tainan/4643/98; experiment: CPE assay, EV-A71 Tainan in RD cells; assay type: cell-based; conditions: Enterovirus A, EVA71; EV-A71 Tainan, RD cells; read-out: EC50
[4] = tested on: EV-A71 US/AK/16-19516; experiment: CPE assay, EV-A71 US/AK in RD cells; assay type: cell-based; conditions: Enterovirus A, EVA71
[5] = tested on: CVB3; experiment: CPE assay, CVB3 in Vero C1008 cells; assay type: cell-based, coxsackievirus B3 (CVB3); conditions: Enterovirus B; CVB3, Vero C1008 cells; read-out: EC50
[6] = tested on: RD cells; experiment: Cytotoxicity, neutral red method, RD cells; conditions: RD cells, neutral red method
[7] = Enterovirus D, EVD68, RD, read-out: EC50

NCCNC(=O)c1cc(-c2ccccc2)nc2ccccc12 [Compound 6an, N-(2-aminoethyl)-2-phenylquinoline-4-carboxamide]
SI = selectivity index (CC50/EC50) [1]: SI50 = 37.4
EC50 [1, 7]: 1.2 µM
CC50 at 3 days [2]: 44.9 µM

O=C(NC1CNC1)c1cc(-c2ccccc2)nc2ccccc12 [Compound 6aj, N-(azetidin-3-yl)-2-phenylquinoline-4-carboxamide]
EC50 [1, 7]: 4.2 µM
CC50 at 3 days [2]: 36.6 µM

CN(C)CCNC(=O)c1cc(-c2c(F)cc(F)cc2F)nc2ccccc12 [Compound 6bc, N-[2-(dimethylamino)ethyl]-2-(2,4,6-trifluorophenyl)quinoline-4-carboxamide]
SI = selectivity index (CC50/EC50) [1]: SI50 = 10.9
EC50 [1, 7]: 3.6 µM
CC50 at 3 days [2]: 39.2 µM

O=C(NCC1CCCNC1)c1cc(-c2ccccc2)nc2ccccc12 (stereo not shown) [Compound 6am]
SI = selectivity index (CC50/EC50) [1]: SI50 = 4.2
EC50 [1, 7]: 7.1 µM
CC50 at 3 days [2]: 30.1 µM

[2H]c1c([2H])c([2H])c(-c2cc(C(=O)NCCN)c3ccccc3n2)c([2H])c1[2H] [Compound 6at, N-(2-aminoethyl)-2 [(2,3,4,5,6-^2H5)phenyl]quinoline-4-carboxamide]
SI = selectivity index (CC50/EC50) [1]: SI50 = 45.6
EC50 [1, 7]: 2.2 µM
CC50 at 3 days [2]: 100 µM

CN(C)CCNC(=O)c1cc(-c2ccc(F)cc2F)nc2ccccc12 [drawing 188]
EC50 [3]: 7.9 µM
EC50 [4]: > 10 µM
EC50 [5]: 0.4 µM

CC(CN)NC(=O)c1cc(-c2ccccc2)nc2ccccc12 (stereo not shown) [Compound 6ap, N-(1-aminopropan-2-yl)-2-phenylquinoline-4-carboxamide]
SI = selectivity index (CC50/EC50) [1]: SI50 = 74.3
EC50 [1, 7]: 1.2 µM
CC50 at 3 days [2]: 89.1 µM

NCCNC(=O)c1cc(-c2cccs2)nc2ccccc12 [drawing 193]
EC50 [3]: 38.3 µM
EC50 [4]: > 30 µM
EC50 [5]: 0.6 µM

CNCCNC(=O)c1cc(-c2ccccc2)nc2ccccc12 [drawing 182]
EC50 [3]: 7.8 µM
EC50 [4]: > 10 µM
EC50 [5]: 1.1 µM

NCCNC(=O)c1cc(-c2ccco2)nc2c(Cl)cccc12 [Compound 6bs, N-(2-aminoethyl)-8-chloro-2-(furan-2-yl)quinoline-4-carboxamide]
SI = selectivity index (CC50/EC50) [1]: SI50 = 50.5
EC50 [1, 7]: 1 µM
CC50 at 3 days [2]: 50.5 µM

NCCCNC(=O)c1cc(-c2ccccc2)nc2ccccc12 [Compound 6ad, N-(3-aminopropyl)-2-phenylquinoline-4-carboxamide]
SI = selectivity index (CC50/EC50) [1]: SI50 = 23.4
EC50 [1, 7]: 7.2 µM
CC50 at 3 days [2]: 168 µM

CC1(CNC(=O)c2cc(-c3ccccc3)nc3ccccc23)CNC1 [Compound 6al, N-[(3-methylazetidin-3-yl)methyl]-2-phenylquinoline-4-carboxamide]
EC50 [1, 7]: 6.9 µM
CC50 at 3 days [2]: 49.5 µM

O=C(NCC1CNC1)c1cc(-c2cccs2)nc2ccccc12 [Compound 6bn, N-[(azetidin-3-yl)methyl]-2-(thiophen-2-yl)quinoline-4-carboxamide]
SI = selectivity index (CC50/EC50) [1]: SI50 = 23.6
EC50 [1, 7]: 1.2 µM
CC50 at 3 days [2]: 28.3 µM

NCCNC(=O)c1cc(-c2ccco2)nc2ccccc12 [Compound 6bp, N-(2-aminoethyl)-2-(furan-2-yl)quinoline-4-carboxamide]
SI = selectivity index (CC50/EC50) [1]: SI50 = 33.4
EC50 [1, 7]: 4.4 µM
CC50 at 3 days [2]: 147 µM

CN(C)CCNC(=O)c1cc(-c2c(F)c(F)c(F)c(F)c2F)nc2ccccc12 [Compound 6be, N-[2-(dimethylamino)ethyl]-2-(2,3,4,5,6-pentafluorophenyl)quinoline-4-carboxamide]
SI = selectivity index (CC50/EC50) [1]: SI50 = 13.7
EC50 [1, 7]: 10.8 µM
CC50 at 3 days [2]: 148 µM

CC(CN)NC(=O)c1cc(-c2cccs2)nc2ccccc12 (stereo not shown) [Compound 6bm, N-(1-aminopropan-2-yl)-2-(thiophen-2-yl)quinoline-4-carboxamide]
SI = selectivity index (CC50/EC50) [1]: SI50 = 47.6
EC50 [1, 7]: 0.5 µM
CC50 at 3 days [2]: 23.8 µM

CN(C)CCNC(=O)c1cc(-c2ccco2)nc2ccccc12 [drawing 194]
EC50 [3]: 30.9 µM
EC50 [4]: 20.9 µM
EC50 [5]: 1.2 µM

CN(C)CCNC(=O)c1cc(-c2c(F)cccc2F)nc2ccccc12 [Compound 6bb, 2-(2,6-difluorophenyl)-N-[2-(dimethylamino)ethyl]quinoline-4-carboxamide]
SI = selectivity index (CC50/EC50) [1]: SI50 = 7.7
EC50 [1, 7]: 12.1 µM
CC50 at 3 days [2]: 93 µM

CN1CCC(NC(=O)c2cc(-c3cccs3)nc3ccccc23)C1 (stereo not shown) [drawing 191]
EC50 [3]: 6.3 µM
EC50 [4]: 8 µM
EC50 [5]: 0.2 µM

N=C(N)NCCNC(=O)c1cc(-c2ccccc2)nc2ccccc12 [Compound 6ao, N-(2-carbamimidamidoethyl)-2-phenylquinoline-4-carboxamide]
SI = selectivity index (CC50/EC50) [1]: SI50 >60.6
EC50 [1, 7]: 3.3 µM
CC50 at 3 days [2]: > 200 µM

O=C(NCC1CNC1)c1cc(-c2ccc(F)cc2)nc2ccccc12 [Compound 6az, N-[(azetidin-3-yl)methyl]-2-(4-fluorophenyl)quinoline-4-carboxamide]
SI = selectivity index (CC50/EC50) [1]: SI50 = 42.2
EC50 [1, 7]: 1.2 µM
CC50 at 3 days [2]: 50.6 µM

CNCCNC(=O)c1cc(-c2ccc(F)cc2)nc2ccccc12 [drawing 186]
EC50 [1]: 0.2 µM
EC50 [3]: 3.1 µM
EC50 [5]: 0.2 µM

CN(C)CCOC(=O)c1cc(-c2ccccc2)nc2ccccc12 [Compound 6ab, 2-(dimethylamino)ethyl 2-phenylquinoline-4-carboxylate]
EC50 [1, 7]: > 50 µM
CC50 at 3 days [2]: 78.9 µM

CC(CN(C)C)NC(=O)c1cc(-c2cccs2)nc2ccccc12 (stereo not shown) [drawing 190]
EC50 [3]: 7.9 µM
EC50 [4]: 8.8 µM
EC50 [5]: 0.4 µM

CN1CC(NC(=O)c2cc(-c3cccs3)nc3ccccc23)C1 [Compound 6bh, N-(1-methylazetidin-3-yl)-2-(thiophen-2-yl)quinoline-4-carboxamide]
SI = selectivity index (CC50/EC50) [1]: SI50 = 42.6
EC50 [1, 7]: 1 µM
CC50 at 3 days [2]: 42.6 µM

O=C(NC1CNC1)c1cc(-c2ccc(F)cc2)nc2ccccc12 [Compound 6ay, N-(azetidin-3-yl)-2-(4-fluorophenyl)quinoline-4-carboxamide]
SI = selectivity index (CC50/EC50) [1]: SI50 = 42.5
EC50 [1, 7]: 1.1 µM
CC50 at 3 days [2]: 46.7 µM

O=C(NCC1CNC1)c1cc(-c2ccccc2)nc2ccccc12 [Compound 6ag, N-[(azetidin-3-yl)methyl]-2-phenylquinoline-4-carboxamide]
EC50 [1, 7]: 5.8 µM
CC50 at 3 days [2]: 43.2 µM

CC(CN(C)C)NC(=O)c1cc(-c2ccccc2)nc2ccccc12 (stereo not shown) [drawing 183]
EC50 [3]: 18.3 µM
EC50 [4]: 11.7 µM
EC50 [5]: 2 µM

O=C(NC1CNC1)c1cc(-c2ccco2)nc2ccccc12 [Compound 6bq, N-(azetidin-3-yl) 2-(furan-2-yl)quinoline-4-carboxamide]
SI = selectivity index (CC50/EC50) [1]: SI50 = 14.5
EC50 [1, 7]: 11.1 µM
CC50 at 3 days [2]: 161 µM

O=C(NCC1CNC1)c1cc(-c2ccco2)nc2ccccc12 [Compound 6br, N-[(azetidin-3-yl)methyl]-2-(furan-2-yl)quinoline-4-carboxamide]
SI = selectivity index (CC50/EC50) [1]: SI50 = 14.8
EC50 [1, 7]: 11.5 µM
CC50 at 3 days [2]: 170 µM

O=C(NCCC1CCCN1)c1cc(-c2ccccc2)nc2ccccc12 (stereo not shown) [Compound 6ai, 2-phenyl-N-[2-(pyrrolidin-2-yl)ethyl]quinoline-4-carboxamide]
EC50 [1, 7]: 6 µM
CC50 at 3 days [2]: 19.1 µM

O=C(NCC1(O)CNC1)c1cc(-c2ccccc2)nc2ccccc12 [Compound 6ah, N-[(3-hydroxyazetidin-3-yl)methyl]-2-phenylquinoline-4-carboxamide]
EC50 [1, 7]: 5.1 µM
CC50 at 3 days [2]: 82.2 µM

CN(C)CCNC(=O)c1cc(-c2cc(F)c(F)c(F)c2)nc2ccccc12 [Compound 6bd, N-[2-(dimethylamino)ethyl]-2-(3,4,5-trifluorophenyl)quinoline-4-carboxamide]
EC50 [1, 7]: > 300 µM
CC50 at 3 days [2]: 38 µM

CN(C)CCNC(=O)c1cc(-c2cccs2)nc2ccccc12 [drawing 189]
EC50 [1]: 0.04 µM
EC50 [3]: 2.9 µM
EC50 [4]: > 10 µM
EC50 [5]: 0.07 µM

CCN(CC)CCNC(=O)c1cc(OC)nc2ccccc12 [Compound 5a, N-[2-(diethylamino)ethyl]-2-methoxyquinoline-4-carboxamide]
SI = selectivity index (CC50/EC50) [1]: >4.8
CC50 [6]: > 250 µM

[2H]c1c([2H])c([2H])c(-c2cc(C(=O)NCC3CNC3)c3ccccc3n2)c([2H])c1[2H] [Compound 6au, N-[(azetidin-3-yl)methyl]-2 [(2,3,4,5,6-^2H5)phenyl]quinoline-4-carboxamide]
SI = selectivity index (CC50/EC50) [1]: SI50 = 29.5
EC50 [1, 7]: 6.4 µM
CC50 at 3 days [2]: 188 µM

CN1CC(NC(=O)c2cc(-c3ccccc3)nc3ccccc23)C1 [Compound 6ak, N-(1-methylazetidin-3-yl)-2-phenylquinoline-4-carboxamide]
EC50 [1, 7]: 2.9 µM
CC50 at 3 days [2]: 46.8 µM

CNCCCNC(=O)c1cc(-c2ccccc2)nc2ccccc12 [Compound 6ac, N-[3-(methylamino)propyl]-2-phenylquinoline-4-carboxamide]
SI = selectivity index (CC50/EC50) [1]: SI50 = 10.5
EC50 [1, 7]: 8.9 µM
CC50 at 3 days [2]: 93.6 µM

[2H]c1c([2H])c([2H])c(-c2cc(C(=O)NCCNC)c3ccccc3n2)c([2H])c1[2H] [Compound 6as, N-[2-(methylamino)ethyl]-2 [(2,3,4,5,6-^2H5)phenyl]quinoline-4-carboxamide]
SI = selectivity index (CC50/EC50) [1]: SI50 = 91.6
EC50 [1, 7]: 1.1 µM
CC50 at 3 days [2]: 101 µM
